Measured values: US9133186B2, “Hetero ring-fused imidazole derivative having AMPK activating effect” (Shionogi & Co., Ltd., priority 2010, dated 2015)

Target: T1, human AMPK α1β1γ1 enzyme (Homo sapiens, UniProt Q13131+Q9Y478)
T1 construct: purchased Carna Biosciences, Inc
Test: AMPK activator evaluation, Test Example 1 (mobility shift, FL-Peptide 7)
Format: biochemical
Settings: human AMPK α1β1γ1, control without compound = 100%; for Emax: read-out: Emax (maximum rate of increase in activity within the measurement range)
Protocol: To a buffer solution consisting of a 50 mM HEPES-NaOH buffer solution (pH 7.0), 100 mM NaCl, 10 mM magnesium chloride, 0.1% bovine serum albumin, 0.2 mM sodium orthovanadate(V), 1 mM ethylene glycol-bis(2-aminoethyl ether)-N,N,N′,N′-tetraacetic acid (EGTA), 5 mM disodium (3-glycerophosphate and 2 mM dithiothreitol, a human AMPK α1β1γ1 enzyme (manufactured by Carna Biosciences, Inc.) was added in an amount to give a conversion rate of approximately 10% by reaction for 2 hours, and a compound dissolved in DMSO was added thereto so as to have a 1% DMSO concentration. The obtained liquid was left to stand for 10 minutes.
To the liquid, a substrate solution consisting of a 50 mM HEPES-NaOH buffer solution (pH 7.0), 100 mM NaCl, 10 mM magnesium chloride, 0.1% bovine serum albumin, 0.2 mM sodium orthovanadate(V), 1 mM ethylene glycol-bis(2-aminoethyl ether)-N,N,N′,N′ tetraacetic acid (EGTA), 5 mM disodium β-glycerophosphate, 2 mM dithiothreitol, 0.4 mM ATP and 3 μM FL-Peptide 7 (manufactured by Caliper Life Sciences, Inc.) was added in equal amount (10 μl in total). The obtained liquid was allowed to react at 25° C. for 2 hours, and 10 μl of 20 mM EDTA was then added thereto to stop the reaction.
To detect phosphorylated fluorescent substrates, the reaction liquid was applied to a measuring device, LabChip EZ Reader II manufactured by Caliper Life Science, Inc., for detecting fluorescence by using differences in mobility due to differences in charge. The setting conditions for the device were pressure, −1.5 PSI; upstream voltage, −2250 V; downstream voltage, −400 V; post sample buffer sip time, 40 seconds; final delay, 120 seconds; and peak order, Product First.

T1 sequence (Q13131 10-559 limits assumed): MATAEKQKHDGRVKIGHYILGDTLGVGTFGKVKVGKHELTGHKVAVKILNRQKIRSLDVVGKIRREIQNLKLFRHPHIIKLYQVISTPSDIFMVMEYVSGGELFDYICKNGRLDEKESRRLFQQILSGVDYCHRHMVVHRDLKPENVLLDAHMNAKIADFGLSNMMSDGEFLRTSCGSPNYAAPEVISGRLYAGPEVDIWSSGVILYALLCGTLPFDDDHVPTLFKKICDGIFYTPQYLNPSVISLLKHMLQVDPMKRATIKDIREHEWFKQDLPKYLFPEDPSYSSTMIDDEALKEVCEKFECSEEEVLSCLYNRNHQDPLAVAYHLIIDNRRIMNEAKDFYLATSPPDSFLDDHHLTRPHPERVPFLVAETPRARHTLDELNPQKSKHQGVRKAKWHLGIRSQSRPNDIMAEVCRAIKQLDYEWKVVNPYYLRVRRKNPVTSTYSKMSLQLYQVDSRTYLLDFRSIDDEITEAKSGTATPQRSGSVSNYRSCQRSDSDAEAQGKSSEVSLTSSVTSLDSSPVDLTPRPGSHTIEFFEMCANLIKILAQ
T1 sequence (Q9Y478 whole entry): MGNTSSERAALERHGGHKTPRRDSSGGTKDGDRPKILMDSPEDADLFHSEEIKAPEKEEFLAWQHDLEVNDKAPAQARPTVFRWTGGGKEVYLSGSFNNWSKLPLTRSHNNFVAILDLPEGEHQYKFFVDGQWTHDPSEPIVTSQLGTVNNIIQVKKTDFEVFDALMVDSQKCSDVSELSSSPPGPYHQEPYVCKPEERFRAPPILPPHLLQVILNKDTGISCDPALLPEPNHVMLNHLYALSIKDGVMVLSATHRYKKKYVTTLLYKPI
T1 sequence (P54619 whole entry partner): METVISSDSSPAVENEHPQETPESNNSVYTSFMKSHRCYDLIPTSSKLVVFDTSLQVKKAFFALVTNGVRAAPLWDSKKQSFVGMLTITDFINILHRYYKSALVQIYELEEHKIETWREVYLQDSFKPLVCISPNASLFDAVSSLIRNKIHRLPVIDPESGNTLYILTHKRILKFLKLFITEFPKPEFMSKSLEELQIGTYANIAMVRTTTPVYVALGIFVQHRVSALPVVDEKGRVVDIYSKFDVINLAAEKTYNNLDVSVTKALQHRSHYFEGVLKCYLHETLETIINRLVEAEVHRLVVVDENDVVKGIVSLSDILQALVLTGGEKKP

SMILES	EC150 (compound concentration showing 150% relative to the control) [nM]	Emax [%]
CC(C)(C(N)=O)c1ccc(Oc2nc3nc(-c4ccc(N5CCOCC5)cc4)c(Cl)cc3[nH]2)cc1F [Compound D-12]	69	226
CC(C)(C(=O)NCCO)c1ccc(Oc2nc3nc(-c4ccc(N5CCOCC5)cc4)c(Cl)cc3[nH]2)cc1 [Compound C-107]	300	232
Cc1ccc(Oc2nc3nc(-c4ccc(CO)cc4)c(Cl)cc3[nH]2)cc1C(=O)O [Compound B-13]	76	311
Cc1ccc(Oc2nc3nc(-c4ccc(C(C)(C)O)cc4)c(Cl)cc3[nH]2)cc1C(=O)O [Compound C-63]	16	331
Cc1ccc(Oc2nc3nc(-c4ccc(N5CCOCC5)cc4)c(Cl)cc3[nH]2)cc1 [Compound B-121]	97	278
CC(C)(C(N)=O)c1ccc(Oc2nc3nc(-c4ccc(N5CCOCC5)cc4)c(Cl)cc3[nH]2)cn1 [Compound D-7]	1600	285
Cc1ccc(Oc2nc3nc(-c4ccc(OCC(C)(C)O)cc4)c(Cl)cc3[nH]2)cc1C(=O)O [Compound C-21]	36	338
Cc1ccc(Oc2nc3nc(N4CCCCC4)c(Cl)cc3[nH]2)cc1C(=O)O [Compound B-3]	23	313
CC(=O)NC(C)(C)c1ccc(Oc2nc3nc(-c4ccc(C5(CO)COC5)cc4)c(Cl)cc3[nH]2)cc1 [Compound D-110]	270	220
NCc1ccc(Oc2nc3nc(-c4ccc(N5CCOCC5)cc4)c(Cl)cc3[nH]2)cc1 [Compound B-117]	370	243
O=P(O)(O)c1cccc(Oc2nc3cc(Cl)c(-c4ccc(N5CCOCC5)cc4)nc3[nH]2)c1 [Compound C-118]	2.1	334
CC(C)(NS(C)(=O)=O)c1ccc(Oc2nc3nc(-c4ccc(N5CCOCC5)cc4)c(Cl)cc3[nH]2)cc1 [Compound D-52]	2800	169
CC(C)(C(=O)O)c1cccc(Oc2nc3nc(-c4ccc(N5CCOCC5)cc4)c(Cl)cc3[nH]2)c1 [Compound D-18]	21	325
CC(=O)NC(C)(C)c1ccc(Oc2nc3nc(-c4ccc(OCCO)cc4)c(Cl)cc3[nH]2)cc1 [Compound D-16]	8.5	280
CC(C)(C(=O)O)c1ccc(Oc2nc3nc(-c4ccc(N5CCCC5)cc4)c(F)cc3[nH]2)cc1 [Compound C-39]	35	279
CNc1ncc(Oc2nc3nc(-c4ccc(N5CCOCC5)cc4)c(Cl)cc3[nH]2)cn1 [Compound D-31]	19	314
CC(=O)NC(C)(C)c1ccc(Oc2nc3nc(-c4ccc(-c5ccccc5O)cc4)c(Cl)cc3[nH]2)cc1 [Compound D-39]	0.6	310
O=C(O)COc1ccc(Oc2nc3nc(-c4ccc(N5CCOCC5)cc4)c(Cl)cc3[nH]2)cc1 [Compound B-110]	160	288
Cc1ccc(Oc2nc3cc(-c4ccc5c(ccn5C)c4)ccc3[nH]2)cc1C(=O)O [Compound B-5]	4700	176
CC(=O)NC(C)(C)c1ccc(Oc2nc3nc(-c4ccc(C5CCOCC5)cc4)c(Cl)cc3[nH]2)cc1 [Compound D-107]	26	249
O=C(O)/C=C/c1cccc(Oc2nc3nc(-c4ccc(N5CCOCC5)cc4)c(Cl)cc3[nH]2)c1 [Compound B-109]	140	315
Cc1ccc(Oc2nc3nc(-c4ccc(-c5ccccc5)cc4)c(Cl)cc3[nH]2)cc1C(=O)O [Compound B-22]	13	339
CC(=O)NC(C)(C)c1ccc(Oc2nc3nc(-c4ccc(C5=CCOCC5)cc4)c(Cl)cc3[nH]2)cc1 [Compound D-73]	17	254

SMILES	EC150 (compound concentration showing 150% relative to the control) [nM]	Emax [%]
Cc1ccc(Oc2nc3nc(-c4cccc(O)c4)c(Cl)cc3[nH]2)cc1C(=O)O [Compound B-40]	110	297
COc1ccc(Oc2nc3nc(-c4ccc(N5CCOCC5)cc4)c(Cl)cc3[nH]2)cn1 [Compound C-100]	590	212
CC(=O)NC(C)(C)c1ncc(Oc2nc3nc(-c4ccc(N5CCOCC5)cc4)c(Cl)cc3[nH]2)cn1 [Compound D-2]	220	255
Cc1ccc(Oc2nc3nc(-c4ccc(OCC(C)C)cc4)c(Cl)cc3[nH]2)cc1C(=O)O [Compound C-33]	52	329
CC(=O)NC(C)(C)c1ccc(Oc2nc3nc(-c4cccc(N(C)C)c4)c(Cl)cc3[nH]2)cc1 [Compound D-26]	82	282
CC(=O)NC(C)(C)c1ccc(Oc2nc3nc(-c4ccc(N5CCOCC5)cc4)c(Cl)cc3[nH]2)cn1 [Compound D-1]	430	182
CC(=O)NC(C)(C)c1ccc(Oc2nc3nc(-c4ccc(N(C)C)cc4)c(Cl)cc3[nH]2)cc1 [Compound D-21]	41	351
CC(=O)NC(C)(C)c1ccc(Oc2nc3nc(-c4ccc(CCO)cc4)c(Cl)cc3[nH]2)cc1 [Compound D-17]	11	282
CC(C)(CO)c1ccc(Oc2nc3nc(-c4ccc(N5CCOCC5)cc4)c(Cl)cc3[nH]2)cc1 [Compound C-99]	170	205
COc1ccc(Oc2nc3nc(-c4ccc(N5CCOCC5)cc4)c(Cl)cc3[nH]2)cc1C(=O)O [Compound C-24]	17	237
Cc1ccc(Oc2nc3nc(-c4ccc(N5CCOCC5)cc4)c(Cl)cc3[nH]2)cc1C(=O)NC#N [Compound C-9]	33	322
OCc1ccc(Oc2nc3nc(-c4ccc(N5CCOCC5)cc4)c(Cl)cc3[nH]2)cc1 [Compound B-131]	44	298
CC(C)(C(N)=O)c1ccc(Oc2nc3nc(-c4ccc(C5(CO)CC5)cc4)c(Cl)cc3[nH]2)cc1 [Compound D-24]	140	198
NC(=O)c1cccc2ccc(Oc3nc4nc(-c5ccc(N6CCOCC6)cc5)c(Cl)cc4[nH]3)cc12 [Compound B-113]	13	316
COCC(=O)NC(C)(C)c1ccc(Oc2nc3nc(-c4ccc(N5CCOCC5)cc4)c(Cl)cc3[nH]2)cc1 [Compound D-50]	11	225
OCCc1ccc(Oc2nc3nc(-c4ccc(N5CCOCC5)cc4)c(Cl)cc3[nH]2)cc1 [Compound B-137]	25	301
CN1CCc2cc(-c3nc4nc(Oc5ccc(C(C)(C)C(N)=O)cc5)[nH]c4cc3Cl)ccc21 [Compound D-3]	220	192
Clc1cc2[nH]c(Oc3cccc(-c4nnn[nH]4)c3)nc2nc1-c1ccc(N2CCOCC2)cc1 [Compound C-1]	66	295
Cc1ccc(Oc2nc3nc(C#Cc4ccccc4)c(Cl)cc3[nH]2)cc1C(=O)O [Compound C-95]	17	309
CC(C)(C(N)=O)c1ccc(Oc2nc3nc(-c4ccc(C5(CO)CC5)cc4)c(Cl)cc3[nH]2)cn1 [Compound D-71]	860	174
CC(=O)NCC(C)(C)c1ccc(Oc2nc3nc(-c4ccc(N5CCOCC5)cc4)c(Cl)cc3[nH]2)cc1 [Compound D-33]	52	220
O=C(O)c1cncc(Oc2nc3nc(-c4ccc(N5CCOCC5)cc4)c(Cl)cc3[nH]2)c1 [Compound B-126]	180	262
